# From patent US20140288040A1, “SUBSTITUTED BENZYLAMINE COMPOUNDS, THEIR USE IN MEDICINE, AND IN PARTICULAR THE TREATMENT OF HEPATITIS C VIRUS (HCV) INFECTION” (ASTEX THERAPEUTICS LIMITED, priority 2011, published 2014)
# Structures can show the parent of a compound that is named as a salt.
# Molecular target: T1, HCV NS3 protease (full length NS34a) (Hepatitis C virus genotype 1b, UniProt P26663)
# T1 construct: The protease activity of the full length NS34a was measured using a FRET-based assay; made in house
# T1 sequence (P26663 1658-1711): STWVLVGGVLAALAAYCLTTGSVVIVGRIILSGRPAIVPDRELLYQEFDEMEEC
# T1 sequence (P26663 1027-1657): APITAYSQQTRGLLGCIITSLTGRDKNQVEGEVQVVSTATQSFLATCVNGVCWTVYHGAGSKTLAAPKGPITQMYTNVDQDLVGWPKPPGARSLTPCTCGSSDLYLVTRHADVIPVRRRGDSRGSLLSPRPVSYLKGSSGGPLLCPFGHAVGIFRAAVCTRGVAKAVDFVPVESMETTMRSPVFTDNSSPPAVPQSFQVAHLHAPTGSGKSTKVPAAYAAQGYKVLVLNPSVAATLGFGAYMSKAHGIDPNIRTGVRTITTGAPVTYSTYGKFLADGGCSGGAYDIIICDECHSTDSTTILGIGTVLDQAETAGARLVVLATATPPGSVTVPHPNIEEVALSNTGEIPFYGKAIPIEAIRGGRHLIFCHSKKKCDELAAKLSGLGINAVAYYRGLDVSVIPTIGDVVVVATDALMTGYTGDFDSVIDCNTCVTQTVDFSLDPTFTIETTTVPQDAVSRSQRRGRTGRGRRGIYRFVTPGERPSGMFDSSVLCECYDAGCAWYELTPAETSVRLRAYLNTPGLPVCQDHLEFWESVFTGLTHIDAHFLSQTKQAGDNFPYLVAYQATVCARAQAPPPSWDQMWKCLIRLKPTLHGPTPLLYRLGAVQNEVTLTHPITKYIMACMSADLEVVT
# Assay: HCV NS3 protease assay (FRET, full length NS34a)
# Format: biochemical
# Conditions: IC50 values of 10-150 μM against the protease activity of the full length NS34a, or at least 40% inhibition of protease activity at a concentration of 100 μM
# Experimental: The HCV NS3 protease functions have been extensively studied and are considered as potential targets for antiviral therapy: see for example the many references listed in the introductory section of this application. Therefore, the activity of the compounds of the invention as anti-HCV agents was assessed using a full length HCV NS3 protease.
# The protease activity of the full length NS34a was measured using a FRET-based assay utilizing a peptide substrate derived from the NS4AB cleavage site (Anaspec) and labelled at one end with a quencher (QXL520) and at the other with a fluorophore (5-FAMsp). NS34a (produced in-house by literature methods) was incubated with test compounds and peptide substrate in 50 mM Tris pH8, 20 mM DTT, 1% CHAPS, 10% glycerol and 5% DMSO. The reaction was followed by monitoring the change in fluorescence on a Molecular Devices Gemini plate reader for 30 minutes at room temperature. Initial rates were calculated from the progress curves using SoftMax Pro (Molecular Devices). IC50 values were then calculated from replicate curves using Prism GraphPad software.
row,SMILES,IC50
1,"CC[C@@H](N[C@H](C)c1ccc[nH]c1=O)c1ccc(Cl)c(Oc2ccccc2)c1F (single isomer, unassigned) [Example 314]",10 to 150 µM
2,"NC(CC(=O)Nc1ccncc1)c1ccc(F)c(Oc2ccccc2)c1F (centres unmarked) [Example 20, 3-Amino-3-(2,4-difluoro-3-phenoxy-phenyl)-N-pyridin-4-yl-propionamide. dihydrochloride]",10 to 150 µM
3,CCC(NCc1cnc(C)n1C)c1ccc(F)c(Oc2ccccc2)c1F (centres unmarked) [Example 23],10 to 150 µM
4,CCC(NC1CCCC1)c1ccc(F)c(Oc2ccccc2)c1F (centres unmarked) [Example 30],10 to 150 µM
5,CCC(NC(C)c1ccn[nH]1)c1ccc(F)c(Oc2ccccc2)c1F (centres unmarked) [Example 33],10 to 150 µM
6,CCC(NCc1ccc2[nH]ccc2c1)c1ccc(F)c(Oc2ccccc2)c1F (centres unmarked) [Example 35],10 to 150 µM
7,CCC(NC(C)C1CC1)c1ccc(F)c(Oc2ccccc2)c1F (centres unmarked) [Example 36],10 to 150 µM
8,"C=CCNC(CC)c1ccc(F)c(Oc2ccccc2)c1F (centres unmarked) [Example 39, Allyl-[1-(2,4-difluoro-3-phenoxy-phenyl)-propyl]-amine. hydrochloride]",10 to 150 µM
9,"CCC(NCCOC)c1ccc(F)c(Oc2ccccc2)c1F (centres unmarked) [Example 42, [1-(2,4-Difluoro-3-phenoxy-phenyl)-propyl]-(2-methoxy-ethyl)-amine. hydrochloride]",10 to 150 µM
10,"NC(CO)c1ccc(F)c(Oc2ccccc2)c1F (centres unmarked) [Example 46, 2-Amino-2-(2,4-difluoro-3-phenoxy-phenyl)-ethanol. hydrochloride]",10 to 150 µM
11,CCC(NC(C)CC(=O)NC)c1ccc(F)c(Oc2ccccc2)c1F (centres unmarked) [Example 48],10 to 150 µM
12,CCC(NC(C)COC)c1ccc(F)c(Oc2ccccc2)c1F (centres unmarked) [Example 51],10 to 150 µM
13,"NC(c1cccnc1)c1ccc(F)c(Oc2ccccc2)c1F (centres unmarked) [Example 59A, C-(2,4-Difluoro-3-phenoxy-phenyl)-C-pyridin-3-yl-methylamine. dihydrochloride]",10 to 150 µM
14,N[C@@H](c1ccc(F)c(Oc2ccccc2)c1F)[C@@H]1CCC(=O)NC1 [Example 74B],10 to 150 µM
15,NCCC(N)c1ccc(F)c(Oc2ccccc2)c1F (centres unmarked) [Example 94],10 to 150 µM
16,C[C@H](CC(N)=O)N[C@@H](CC1CCNCC1)c1ccc(F)c(Oc2ccccc2)c1F [Example 99],10 to 150 µM
17,"C=CCN[C@@H](CC)c1ccc(F)c(Oc2ccccc2)c1F [Example 102, Allyl-[(S)-1-(2,4-difluoro-3-phenoxy-phenyl)-propyl]-amine.hydrochloride]",10 to 150 µM
18,"CCc1ccc(C(N)CC2CCNCC2)c(F)c1Oc1ccccc1 (centres unmarked) [Example 105B, 1-(4-Ethyl-2-fluoro-3-phenoxy-phenyl)-2-piperidin-4-yl-ethylamine.dihydrochloride]",10 to 150 µM
19,CC[C@@H](N[C@H](C)CC(N)=O)c1ccc(Cl)c(Oc2cccc(CO)c2)c1F [Example 117],10 to 150 µM
20,CC[C@@H](N[C@H](C)CC(N)=O)c1ccc(F)c(Oc2ccccc2)c1F [Example 120],10 to 150 µM
21,CCC[C@@H](N[C@H](C)CC(N)=O)c1ccc(Cl)c(Oc2ccccc2)c1F [Example 126],10 to 150 µM
22,"CC[C@@H](N[C@H](C)CC(=O)NC)c1ccc(Cl)c(Oc2ccccc2)c1F [Example 131B, (R)-3-[(R)-1-(4-Chloro-2-fluoro-3-phenoxy-phenyl)-propylamino]-N-methyl-butyramide. hydrochloride]",10 to 150 µM
23,CC[C@@H](N[C@@H](CC(N)=O)C(C)C)c1ccc(Cl)c(Oc2ccccc2)c1F [Example 142],10 to 150 µM
24,CC[C@@H](N)c1ccc(Cl)c(Oc2ccc(Cl)nn2)c1F [Example 153],10 to 150 µM

# Same assay, conditions: protease activity of full length NS34a, FRET peptide substrate; read-out: Activity IC50
row,SMILES,IC50
1,CCCCC(N)c1ccc(F)c(Oc2ccccc2)c1F (centres unmarked) [Example 10],1.8 µM
2,CCC(NCc1c[nH]c2ccccc12)c1ccc(F)c(Oc2ccccc2)c1F (centres unmarked) [Example 31],7.1 µM
3,CCC(NCc1cnc[nH]1)c1ccc(F)c(Oc2ccccc2)c1F (centres unmarked) [Example 37],5.6 µM
4,CCc1ncc(CNC(CC)c2ccc(F)c(Oc3ccccc3)c2F)[nH]1 (centres unmarked) [Example 38],9.7 µM
5,NC(C1=CCCCC1)c1ccc(F)c(Oc2ccccc2)c1F (centres unmarked) [Example 40],6.3 µM
6,NC(c1ccc(F)c(Oc2ccccc2)c1F)C1CCOCC1 (centres unmarked) [Example 41],7.1 µM
7,CCC(NC(CO)CO)c1ccc(F)c(Oc2ccccc2)c1F (centres unmarked) [Example 43],6.6 µM
8,"CC[C@@H](N[C@@H](C)C(N)=O)c1ccc(Cl)c(Oc2ccccc2)c1F [Example 54, (S)-2-[(R)-1-(4-Chloro-2-fluoro-3-phenoxy-phenyl)-propylamino]-propionamide hydrochloride]",1.4 µM
9,CCC(NC[C@@H](O)CO)c1ccc(F)c(Oc2ccccc2)c1F (some centres unmarked) [Example 69],6 µM
10,"CS(=O)(=O)Nc1cccc(Oc2c(F)ccc(C(N)CC3CCNCC3)c2F)c1 (centres unmarked) [Example 108B, N-{3-[3-(1-Amino-2-piperidin-4-yl-ethyl)-2,6-difluoro-phenoxy]-phenyl}-methane-sulfonamide.dihydrochloride]",1.9 µM
11,"CC[C@H](N)c1ccc(Cl)c(Oc2cccc(CO)c2)c1F [Example 111, {3-[3-((S)-1-Amino-propyl)-6-chloro-2-fluoro-phenoxy]-phenyl}-methanol.hydrochloride]",0.63 µM
12,"CCC(Nc1ccncc1)c1ccc(F)c(Oc2ccccc2)c1F (centres unmarked) [Example 113, [1-(2,4-Difluoro-3-phenoxy-phenyl)-propyl]-pyridin-4-yl-amine.hydrochloride]",0.68 µM
13,CC[C@@H](N[C@@H](C)CC(N)=O)c1ccc(F)c(Oc2ccccc2)c1F [Example 121],0.21 µM
14,CC[C@@H](NCCC(N)=O)c1ccc(F)c(Oc2ccccc2)c1F [Example 122],1 µM
15,CC[C@H](N[C@@H](C)c1c[nH]cn1)c1ccc(Cl)c(Oc2ccccc2)c1F [Example 129],0.36 µM
16,CC[C@@H](N[C@H](C)c1c[nH]cn1)c1ccc(Cl)c(Oc2ccccc2)c1F [Example 130],1.3 µM
17,"CC[C@H](N)c1ccc(Cl)c(Oc2cccc(C(C)O)c2)c1F (stereo partly drawn) [Example 132B, 1-{3-[3-((S)-1-Amino-propyl)-6-chloro-2-fluoro-phenoxy]-phenyl}-ethanol.hydrochloride]",0.52 µM
18,"CC[C@H](N)c1ccc(Cl)c(Oc2cccc(C(=O)N3CCCC3)c2)c1F [Example 133, {3-[3-((S)-1-Amino-propyl)-6-chloro-2-fluoro-phenoxy]-phenyl}-pyrrolidin-1-yl-methanone.hydrochloride]",0.7 µM

row,SMILES,IC50
1,CC[C@H](CC(N)=O)N[C@H](CC)c1ccc(Cl)c(Oc2ccccc2)c1F [Example 135],9.7 µM
2,"CC[C@H](Nc1cccc2c1CNC2)c1ccc(F)c(Oc2ccccc2)c1F [Example 136, [(S)-1-(2,4-Difluoro-3-phenoxy-phenyl)-propyl]-(2,3-dihydro-1H-isoindol-4-yl)-amine.hydrochloride]",1.1 µM
3,"CC[C@H](N)c1ccc(Cl)c(Oc2cccc(C(=O)N(C)Cc3cnn(Cc4ccccc4)c3)c2)c1F [Example 138, 3-[3-((S)-1-Amino-propyl)-6-chloro-2-fluoro-phenoxy]-N-(1-benzyl-1H-pyrazol-4-ylmethyl)-N-methyl-benzamide.hydrochloride]",0.63 µM
4,"CCNC(=O)O[C@H](C)c1cccc(Oc2c(Cl)ccc([C@@H](N)CC)c2F)c1 [Example 139, Ethyl-carbamic acid (R)-1-{3-[3-((S)-1-amino-propyl)-6-chloro-2-fluoro-phenoxy]-phenyl}-ethyl ester.hydrochloride]",1.3 µM
5,CCNC(=O)O[C@@H](C)c1cccc(Oc2c(Cl)ccc([C@@H](N)CC)c2F)c1 [Example 140],1.3 µM
6,"CC[C@H](N)c1ccc(Cl)c(Oc2cccc(C(=O)N(C)Cc3cn[nH]c3)c2)c1F [Example 141, 3-[3-((S)-1-Amino-propyl)-6-chloro-2-fluoro-phenoxy]-N-methyl-N-(1H-pyrazol-4-ylmethyl)-benzamide.hydrochloride]",2.8 µM
7,"CC[C@H](Nc1ccncc1)c1ccc(F)c(Oc2ccccc2)c1F [Example 144, [(S)-1-(2,4-Difluoro-3-phenoxy-phenyl)-propyl]-pyridin-4-yl-amine. hydrochloride]",0.4 µM
8,CC[C@@H](N[C@H](C)CC(=O)NCCO)c1ccc(Cl)c(Oc2ccccc2)c1F [Example 146],3.1 µM
9,CC[C@@H](N[C@@H](C)CC(=O)NCCO)c1ccc(Cl)c(Oc2ccccc2)c1F [Example 147],0.11 µM
10,CC[C@@H](N[C@@H](C)c1[nH]cnc1C)c1ccc(Cl)c(Oc2ccccc2)c1F [Example 148],1.7 µM
11,CC[C@@H](N)c1ccc(Cl)c(Oc2cccc(F)c2)c1F [Example 149],3 µM
12,CC[C@@H](N)c1ccc(Cl)c(Oc2ccc(F)cc2)c1F [Example 150],2 µM
13,CC[C@@H](N)c1ccc(Cl)c(Oc2cccc(NS(C)(=O)=O)c2)c1F [Example 151],3.1 µM
14,CC[C@@H](N)c1ccc(Cl)c(Oc2cccc([N+](=O)[O-])c2)c1F [Example 152],6.9 µM
15,"CC[C@@H](N)c1ccc(Cl)c(Oc2ccc(N)cn2)c1F [Example 156, 6-[3-((R)-1-Amino-propyl)-6-chloro-2-fluoro-phenoxy]-pyridin-3-ylamine.dihydrochloride]",6.2 µM
16,CC[C@@H](N)c1ccc(Cl)c(Oc2cccc(CNS(C)(=O)=O)c2)c1F [Example 157],2.1 µM
17,CC[C@@H](N)c1ccc(Cl)c(Oc2ccc(C#N)cc2)c1F [Example 158],0.42 µM
